The text below walks through data of patent publication US6790978B2, “Thyromimetic organic compounds” (Novartis AG, priority 1999, dated 2004).

Assay [1] addresses triiodothyronine (T3) nuclear receptor. The experiment in a line: T3 nuclear receptor binding assay (rat liver nuclei, [125I]-L-T3 displacement). Conditions: 0.3 nM [125I]-L-T3, 22° C. The procedure:
The in vitro binding to T3 nuclear receptors is determined as follows:
Rat liver nuclei and plasma membrane preparations are obtained from Sprague-Dawley (CD) rats (Charles River Labs.) by differential centrifugation as described by Emmelot at al (Methods in Enzymology 31:75, Part A, 1974) with minor modificatons. The nuclear fraction obtained from the 275 ×g pellet is further purified as generally described by Spindler et al (J. Biol. Chem. 250:4118, 1975).
The novel test compounds are assayed for binding to the nuclei by the method of Spindler et al (J. Biol. Chem. 250:4118, 1975). The nuclei are incubated at 22° C. with 0.3 nM of [^125I]-L-triiodothyronine (L-T3). Parallel incubations are conducted with tubes containing, in addition to the nuclei and radioactive L-T3, either various concentrations of the test compounds or 3 μM of nonradioactive L-T3. The latter is used as a measure of nonspecific binding. The radio-activity bound to the nuclei is determined following centrifugation of the reaction mixture at 800×g for 7 minutes and washing of the pellet obtained. The amount of [^125I]-L-T3 specifically bound is determined by subtracting the amount nonspecifically bound (radioactivity contained in the nuclear pellet following incubation with excess (3 μM) non-radioactive L-T3. The concentration of test compound which inhibits the specific binding of [^125I]-L-T3 by 50 percent (IC50) is determined graphically from the reciprocal plot of the specifically bound [^125I]-L-T3 versus the various concentrations of the test compound.

Assay [2] has as its system serum cholesterol. Briefly: Cholesterol lowering activity in normocholesterolemic dogs. Type of assay: in vivo. Conditions: dog, daily dose of about 10 μg/kg p.o. The source says: Cholesterol lowering activity can also be evaluated in normocholesterolemic dogs fed regular chow following the procedure described above, by administration of test compound orally for 5 days.

Assay [3] relates to Lp(a). The experiment in a line: Lp(a) lowering activity in the normolipemic cynomolgus monkey. The format is in vivo, cynomolgus monkey (Macaca fascicularis). Conditions: normolipemic cynomolgus monkeys, 4 week treatment, daily oral dose of 75 μg/kg. On the procedure: Cholesterol and Lp(a) lowering activity can be determined in the normolipemic cynomolgus monkey as follows:
Adult male and female cynomolgus monkeys (Macaca fascicularis) weighing 3-7 kg are used. Animals are individually housed and fed a standard monkey chow diet (Purina 5047) supplemented with fresh fruits and vegetables. Each animal serves as its own control and each dosing regime is followed by a wash out period. Test compounds were dissolved in ethanol, imbibed in fruit pulp and administered orally. Animals are dosed once a day with test compounds for a treatment period varying from 8 to 28 days. Blood samples are obtained after an overnight fast at baseline and at the end of the study. […] Plasma samples are divided into aliquots and stored at −70° C. until analyzed. Plasma concentrations of total cholesterol (TC) and triglycerides (TG) are determined by enzymatic methods using commercial kits (Sigma Diagnostics). High-density lipoprotein cholesterol (HDL-C) concentration is measured after precipitation of apoB-containing lipoproteins. Since the fasting plasma of cynomolgus monkeys on a chow diet contains negligible amounts of cholesterol in very low-density lipoprotein, the low-density lipoprotein cholesterol (LDL-C) concentration is calculated by subtracting HDL-C from TC. […] Quantification of Lp(a) is not affected by apo(a) size. […]

For assay [4], the system named is serum cholesterol. The experiment in a line: Cholesterol lowering activity in the rat on a high cholesterol diet. The format is in vivo. Conditions: daily dose of about 20 μg/kg p.o. On the procedure:
Cholesterol lowering activity is determined in the rat as follows:
Male Sprague-Dawley rats (230-250 g) (Taconic Farms) are maintained ad libitum on water and a high cholesterol diet (1.5% cholesterol and 0.5% cholic acid) for two weeks prior to and during the 7-day treatment period. Groups of animals are treated orally by gavage with the vehicle alone or with test compound for 7 consecutive days. After the last dose, animals are fasted for 18 hours and blood is collected. Blood samples are centrifuged at 2500 rpm for 10 minutes to prepare plasma for total cholesterol determination as well as LDL and HDL cholesterol concentrations. HDL values are determined after […] (Warnick and Albers, 1978). All samples are analyzed enzymatically for cholesterol with a diagnostic reagent kit (Sigma Chemical Co., St. Louis, Mo.). The analysis is performed on a Bio-Mek automated work station. LDL/VLDL fractions are precipitated in the following manner: 0.35 mL of plasma is aliquoted into Eppendorf tubes to which 12 μL of 2M manganese chloride, 11.2 μL of sodium heparin (Porcine Intestinal, 5000 units/mL), and 8.3 μL of normal saline are added. The samples are vortexed and are placed on ice for 15 minutes, then centrifuged at 4° C. for 10 minutes at 1300 rpm and the supernatant is enzymatically analyzed for cholesterol. […]

As usually defined, the IC50 is the concentration at which inhibition is half-maximal. `Cc1cc(NC(=O)CC(=O)O)cc(C)c1Oc1ccc(O)c(S(=O)(=O)c2ccc(F)cc2)c1` [Example 35, N-{4-[3-(4-Fluorobenzenesulfonyl)-4-hydroxyphenoxy]-3,5-dimethylphenyl}malonamic acid] yielded an IC50 in assay [1] of approximately 1 nM.

The compound `Cc1cc(NC(=O)C(=O)O)cc(C)c1Oc1ccc(O)c(S(=O)(=O)c2ccc(Cl)cc2)c1` [Example 28] showed a 50% inhibitory concentration (IC50) in assay [1] of approximately 0.13 nM.

Consider `O=C(O)C(=O)Nc1cc(Br)c(Oc2ccc(O)c(S(=O)(=O)c3ccc(F)cc3)c2)c(Br)c1` [Example 39, N-{3,5-Dibromo-4-[3-(4-fluorobenzenesulfonyl)-4-hydroxyphenoxy]phenyl}oxamic acid], for which the IC50 in assay [1] was approximately 0.04 nM. As to `Cc1cc(NC(=O)C(=O)O)cc(C)c1Oc1ccc(O)c(S(=O)(=O)c2ccc(F)cc2)c1` [Example 26, N-{4-[3-(4-Fluorobenzenesulfonyl)4-hydroxyphenoxy]-3,5-dimethylphenyl}oxamic acid], the serum cholesterol lowering result in assay [2] and in assay [4] was “significantly lowers serum cholesterol” throughout. In assay [3], the “Lp(a) levels lowered” value is recorded as “about 40%”. In addition, the half-maximal inhibitory concentration (IC50) in assay [1] is approximately 0.17 nM.
